Data as given in paper PMC12376241 (2025).

What was measured:
[1] = test system: LR1 (RNA, aptamer) GGGAGAGGAGGGAGAUAGAUAUCAAACUAAACACUUGAGGCUCGAUCUUUAUUGUAUUUACACCAUCUUGUGCAUCAUUUCGUGGAUGCCACAGGAC; experiment: fluorescence polarization, displacement of Cy3-ODN; conditions: 3 mM Mg2+, PBS, 0.005% Tween 20, 21 °C; for binding: 100 nM Cy3-ODN, 500 nM RNA, tested at 100 μM
[2] = test system: R3 (RNA, aptamer) GGGAGAGGAGGGAGAUAGAUAUCAAGUCGGAGGUAUGAGGCUCGAUCACGAAGAAGGCCGAUUGGGUUACCCUCCUUUUUCGUGGAUGCCACAGGAC; experiment: fluorescence polarization, displacement of Cy3-ODN; conditions: 3 mM Mg2+, PBS, apparent, 0.005% Tween 20, 21 °C, 9-nt Cy3-ODN displaced, inhibitor vs response fit
[3] = test system: R3 (RNA, aptamer) GGGAGAGGAGGGAGAUAGAUAUCAAGUCGGAGGUAUGAGGCUCGAUCACGAAGAAGGCCGAUUGGGUUACCCUCCUUUUUCGUGGAUGCCACAGGAC; experiment: ITC; conditions: 300 μM ligand into 20 μM RNA
[4] = test system: R2 (RNA, aptamer) GGGAGAGGAGGGAGAUAGAUAUCAAGAGGUACGUAUGAGGCUCGAUCGGAAGGCUGGUCUAGGUCCCGUCCUGACCGUUUCGUGGAUGCCACAGGAC; experiment: fluorescence polarization, displacement of Cy3-ODN; conditions: 3 mM Mg2+, PBS, 0.005% Tween 20, 21 °C, 9-nt Cy3-ODN, 500 nM RNA, 0.1-1 mM compound
[5] = test system: T1 (RNA, aptamer) GGGAGAGGAGGGAGAUAGAUAUCAACUAUCGCUUGUGAGGCUCGAUCUUUAUGUGCCCCUCCUUCAGGUUUGGCGUCUUUCGUGGAUGCCACAGGAC; experiment: fluorescence polarization, displacement of Cy3-ODN; conditions: 3 mM Mg2+, PBS, 0.005% Tween 20, 21 °C
[6] = test system: T1 (RNA, aptamer) GGGAGAGGAGGGAGAUAGAUAUCAACUAUCGCUUGUGAGGCUCGAUCUUUAUGUGCCCCUCCUUCAGGUUUGGCGUCUUUCGUGGAUGCCACAGGAC; experiment: ITC; conditions: 1 mM ligand into 50 μM RNA
[7] = test system: LR2 (RNA, aptamer) GGGAGAGGAGGGAGAUAGAUAUCAAUUACCACGCUUGAGGCUCGAUCUUUUGCUUUGUCCAUCUAGUGUUGUCUGCGUUUCGUGGAUGCCACAGGAC; experiment: fluorescence polarization, displacement of Cy3-ODN; conditions: 3 mM Mg2+, PBS, 0.005% Tween 20, 21 °C, 100 nM Cy3-ODN, 500 nM RNA, 100 μM compound
[8] = test system: LM2 (RNA, aptamer) GGGAGAGGAGGGAGAUAGAUAUCAAACUAACAGUCUGAGGCUCGAUCUUUUGCAGAAACUUUCGUCUUUUGGCUAUCUUUCGUGGAUGCCACAGGAC; experiment: fluorescence polarization, displacement of Cy3-ODN; conditions: 3 mM Mg2+, PBS, 0.005% Tween 20, 21 °C, 100 nM Cy3-ODN, 500 nM RNA, 100 μM compound
[9] = test system: LM1 (RNA, aptamer) GGGAGAGGAGGGAGAUAGAUAUCAACACUUGAACGUGAGGCUCGAUCUUUUUAGCUUUUUACUGCGGCGUUAACGGUUUUCGUGGAUGCCACAGGAC; experiment: fluorescence polarization, displacement of Cy3-ODN; conditions: 3 mM Mg2+, PBS, apparent, 0.005% Tween 20, 21 °C, shortened Cy3-labelled capture ODN displaced, inhibitor vs response fit
[10] = test system: HDB2 (RNA, aptamer) GGGAGAGGAGGGAGAUAGAUAUCAAACCGGCACCUGAGGCUCGAUCUUUGUUUGCAAAGGGCAUUGCAUCGAUGUGUUUUUCGUGGAUGCCACAGGAC; experiment: ITC; conditions: 3 mM Mg2+, PBS, 1 mM ligand into 20 μM RNA, ligand-into-buffer heat subtracted, legend also prints HDB1
[11] = test system: HDB1 (RNA, aptamer) GGGAGAGGAGGGAGAUAGAUAUCAAACCCCAUCUUGAGGCUCGAUCGGCUCGUUUUUCAGGGAUAAGUAGAUUUAGUUUUUCGUGGAUGCCACAGGAC; experiment: fluorescence polarization, displacement of Cy3-ODN; conditions: 3 mM Mg2+, PBS, apparent, 0.005% Tween 20, 21 °C, shortened Cy3-labelled capture ODN displaced, inhibitor vs response fit
[12] = test system: LR1 (RNA, aptamer) GGGAGAGGAGGGAGAUAGAUAUCAAACUAAACACUUGAGGCUCGAUCUUUAUUGUAUUUACACCAUCUUGUGCAUCAUUUCGUGGAUGCCACAGGAC; experiment: ITC; conditions: 3 mM Mg2+, PBS, 1 mM ligand into 20 μM RNA, ligand-into-buffer heat subtracted
[13] = test system: LM1 (RNA, aptamer) GGGAGAGGAGGGAGAUAGAUAUCAACACUUGAACGUGAGGCUCGAUCUUUUUAGCUUUUUACUGCGGCGUUAACGGUUUUCGUGGAUGCCACAGGAC; experiment: ITC; conditions: 3 mM Mg2+, PBS, 1 mM ligand into 20 μM RNA, ligand-into-buffer heat subtracted
[14] = test system: P7 (RNA, aptamer) GGGAGAGGAGGGAGAUAGAUAUCAACAGGAACGGUUGAGGCUCGAUCAGAUACCCCUCGCUACAAUGCGGCAUUGGGUUUCGUGGAUGCCACAGGAC; experiment: fluorescence polarization, displacement of Cy3-ODN; conditions: 3 mM Mg2+, PBS, 0.005% Tween 20, 21 °C, 9-nt Cy3-ODN, 500 nM RNA, 0.1-1 mM compound
[15] = test system: I5 (RNA, aptamer) GGGAGAGGAGGGAGAUAGAUAUCAAACGAACGGCAUGAGGCUCGAUCUACGUUACCCCUCUGACGUUGGCAUUUGUGUUUCGUGGAUGCCACAGGAC; experiment: fluorescence polarization, displacement of Cy3-ODN; conditions: 3 mM Mg2+, PBS, apparent, 0.005% Tween 20, 21 °C, 9-nt Cy3-ODN displaced, inhibitor vs response fit

CC1(C)S[C@@H]2[C@H](NC(=O)[C@H](N)c3ccccc3)C(=O)N2[C@H]1C(=O)O
binding [1]: no

Cc1cc2nc3c(=O)[nH]c(=O)nc-3n(C[C@H](O)[C@H](O)[C@H](O)CO)c2cc1C
Kd [2]: ~ 5 μM
Kd [3]: 9.88 ± 1.09 µM
binding [4]: weak

Cn1c(=O)c2[nH]cnc2n(C)c1=O
Kd ([5]; apparent, 9-nt Cy3-ODN displaced, inhibitor vs response fit): ~ 54 μM
binding [1]: no
Kd [6]: 70.3 ± 6.33 µM

Cn1c(=O)c2c(ncn2C)n(C)c1=O
binding ([5]; 9-nt Cy3-ODN tracer, no binding observed): no
binding ([6]; no interaction): no

N=C(N)NCCC[C@H](N)C(=O)O
binding [1]: no

NC[C@@H]1O[C@H](O[C@H]2[C@@H](O)[C@H](O[C@@H]3[C@@H](O)[C@H](N)C[C@H](N)[C@H]3O[C@H]3O[C@H](CN)[C@@H](O)[C@H](O)[C@H]3N)O[C@@H]2CO)[C@H](N)[C@@H](O)[C@@H]1O
binding [7]: yes
binding [8]: yes
Kd ([1]; apparent, shortened Cy3-labelled capture ODN displaced, inhibitor vs response fit): ~ 3 μM
Kd [9]: ~ 4 μM
Kd [10]: 55.9 ± 3.57 µM
Kd [11]: ~ 10 μM
Kd [12]: 34.7 ± 1.97 µM
Kd [13]: 38.0 ± 2.10 µM

NC[C@H]1O[C@H](O[C@H]2[C@H](O)[C@@H](O[C@H]3O[C@H](CO)[C@@H](O)[C@H](N)[C@H]3O)[C@H](N)C[C@@H]2N)[C@H](N)[C@@H](O)[C@@H]1O
Kd [12]: 130.0 ± 30.9 µM

Nc1nc2c(ncn2[C@@H]2O[C@H](COP(=O)(O)OP(=O)(O)O)[C@@H](OP(=O)(O)OP(=O)(O)O)[C@H]2O)c(=O)[nH]1
binding [14]: weak

Nc1ncnc2c1ncn2[C@@H]1O[C@@H]2COP(=O)(O)O[C@H]2[C@H]1O
binding [1]: no

O=P(O)(O)O[C@H]1[C@@H](OP(=O)(O)O)[C@H](OP(=O)(O)O)[C@@H](OP(=O)(O)OP(=O)(O)O)[C@H](OP(=O)(O)O)[C@H]1OP(=O)(O)O
Kd [15]: ~ 76 μM
